Holding throughout (experiment): kinome screen (33PanQinase)
Common to all, as to type: biochemical

For assay [1], the target named is T1, PRK2 (Homo sapiens, UniProt Q16513).
T1 construct: purchased Reaction Biology Europe GmbH (formerly ProQinase)
On the procedure: (§1) The Kinome Screening was performed by Reaction Biology Europe GmbH (http://reactionbiology.com; Freiburg i. Br., Germany).

Assay [2] addresses T2, JAK1 (Homo sapiens, UniProt P23458).
T2 construct: purchased Reaction Biology Europe GmbH (formerly ProQinase)
How it is done:
as §1

Assay [3] has as its target T3, PRKG2 (Homo sapiens, UniProt Q13237).
T3 construct: purchased Reaction Biology Europe GmbH (formerly ProQinase)
T3 sequence (Q13237 1-762): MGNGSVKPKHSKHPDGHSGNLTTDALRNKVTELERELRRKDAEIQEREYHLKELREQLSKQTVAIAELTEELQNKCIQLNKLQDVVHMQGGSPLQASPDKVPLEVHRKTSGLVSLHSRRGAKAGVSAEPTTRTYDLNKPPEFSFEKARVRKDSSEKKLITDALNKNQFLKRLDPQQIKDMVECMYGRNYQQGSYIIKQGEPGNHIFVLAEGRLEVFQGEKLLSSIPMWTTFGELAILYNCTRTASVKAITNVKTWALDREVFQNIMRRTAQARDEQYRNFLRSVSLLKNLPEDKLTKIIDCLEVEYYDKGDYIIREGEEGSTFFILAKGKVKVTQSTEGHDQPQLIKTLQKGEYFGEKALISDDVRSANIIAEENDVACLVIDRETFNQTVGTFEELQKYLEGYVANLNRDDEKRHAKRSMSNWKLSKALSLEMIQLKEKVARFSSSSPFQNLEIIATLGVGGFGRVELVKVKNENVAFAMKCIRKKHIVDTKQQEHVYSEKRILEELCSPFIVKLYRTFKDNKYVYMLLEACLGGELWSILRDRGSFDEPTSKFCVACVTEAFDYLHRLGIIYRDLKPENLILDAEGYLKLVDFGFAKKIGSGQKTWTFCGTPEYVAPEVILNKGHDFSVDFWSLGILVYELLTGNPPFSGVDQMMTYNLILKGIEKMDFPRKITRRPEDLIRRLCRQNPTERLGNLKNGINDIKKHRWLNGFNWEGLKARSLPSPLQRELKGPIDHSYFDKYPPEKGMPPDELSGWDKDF
How it is done: as §1

In assay [4] the target is T4, CK1ε (Homo sapiens, UniProt P49674).
T4 construct: purchased Reaction Biology Europe GmbH (formerly ProQinase)
How it is done:
as §1

Assay [5] addresses T5, SIK1 (Homo sapiens, UniProt P57059).
T5 construct: purchased Reaction Biology Europe GmbH (formerly ProQinase)
On the procedure: as §1

Assay [6] deals with T6, PKCϴ (Homo sapiens, UniProt Q04759).
T6 construct: purchased Reaction Biology Europe GmbH (formerly ProQinase)
On the procedure:
as §1

The target in assay [7] is T7, ITK (Homo sapiens, UniProt Q08881).
T7 construct: purchased Reaction Biology Europe GmbH (formerly ProQinase)
T7 sequence (Q08881 1-620): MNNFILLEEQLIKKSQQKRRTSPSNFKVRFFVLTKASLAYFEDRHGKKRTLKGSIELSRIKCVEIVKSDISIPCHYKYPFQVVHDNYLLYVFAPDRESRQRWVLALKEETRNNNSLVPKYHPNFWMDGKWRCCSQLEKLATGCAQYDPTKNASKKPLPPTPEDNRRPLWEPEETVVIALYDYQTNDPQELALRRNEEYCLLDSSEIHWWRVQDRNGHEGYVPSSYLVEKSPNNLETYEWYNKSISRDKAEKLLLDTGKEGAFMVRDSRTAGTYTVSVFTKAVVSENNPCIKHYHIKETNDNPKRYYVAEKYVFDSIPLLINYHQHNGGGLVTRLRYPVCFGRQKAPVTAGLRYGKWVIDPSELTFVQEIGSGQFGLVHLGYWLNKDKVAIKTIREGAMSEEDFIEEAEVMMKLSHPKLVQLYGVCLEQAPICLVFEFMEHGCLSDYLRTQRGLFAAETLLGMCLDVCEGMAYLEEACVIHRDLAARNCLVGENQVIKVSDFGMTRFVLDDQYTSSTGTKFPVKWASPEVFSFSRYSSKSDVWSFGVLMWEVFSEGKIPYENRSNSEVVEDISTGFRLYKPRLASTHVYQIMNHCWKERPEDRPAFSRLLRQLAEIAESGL
How it is done: as §1

The target in assay [8] is T8, SGK1 (Homo sapiens, UniProt O00141).
T8 construct: purchased Reaction Biology Europe GmbH (formerly ProQinase)
T8 sequence (O00141 1-431): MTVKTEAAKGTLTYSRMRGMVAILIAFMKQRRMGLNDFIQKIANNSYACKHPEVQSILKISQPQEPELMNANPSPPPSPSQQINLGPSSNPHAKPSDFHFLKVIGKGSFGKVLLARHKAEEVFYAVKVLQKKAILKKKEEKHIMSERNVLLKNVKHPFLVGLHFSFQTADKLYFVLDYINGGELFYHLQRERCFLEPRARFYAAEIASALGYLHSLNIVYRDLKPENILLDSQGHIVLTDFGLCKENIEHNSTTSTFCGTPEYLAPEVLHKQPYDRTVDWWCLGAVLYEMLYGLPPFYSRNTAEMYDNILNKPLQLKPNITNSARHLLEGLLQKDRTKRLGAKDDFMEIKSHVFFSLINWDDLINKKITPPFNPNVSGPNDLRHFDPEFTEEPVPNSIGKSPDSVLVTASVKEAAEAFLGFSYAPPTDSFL
How it is done: as §1

Assay [9] concerns the target T9, MYLK2 (Homo sapiens, UniProt Q9H1R3).
T9 construct: purchased Reaction Biology Europe GmbH (formerly ProQinase)
On the procedure:
as §1

The target in assay [10] is T10, MEK5 (Homo sapiens, UniProt Q13163).
T10 construct: purchased Reaction Biology Europe GmbH (formerly ProQinase)
T10 sequence (Q13163 1-448): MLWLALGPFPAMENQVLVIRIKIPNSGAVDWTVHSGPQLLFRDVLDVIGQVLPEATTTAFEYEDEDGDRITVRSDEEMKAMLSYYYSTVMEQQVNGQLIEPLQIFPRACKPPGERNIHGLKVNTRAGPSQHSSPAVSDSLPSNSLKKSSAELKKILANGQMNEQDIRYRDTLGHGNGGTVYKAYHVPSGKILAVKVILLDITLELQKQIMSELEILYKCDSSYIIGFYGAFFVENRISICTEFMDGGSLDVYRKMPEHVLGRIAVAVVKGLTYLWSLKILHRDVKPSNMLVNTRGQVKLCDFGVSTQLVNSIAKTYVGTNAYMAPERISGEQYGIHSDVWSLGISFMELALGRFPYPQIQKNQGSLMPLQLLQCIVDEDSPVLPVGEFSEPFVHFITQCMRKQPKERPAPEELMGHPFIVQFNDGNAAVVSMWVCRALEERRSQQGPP
On the procedure: as §1

Assay [11] deals with T11, ACK1 (Homo sapiens, UniProt Q07912).
T11 construct: purchased Reaction Biology Europe GmbH (formerly ProQinase)
How it is done:
as §1

T1 sequence (Q16513 whole entry): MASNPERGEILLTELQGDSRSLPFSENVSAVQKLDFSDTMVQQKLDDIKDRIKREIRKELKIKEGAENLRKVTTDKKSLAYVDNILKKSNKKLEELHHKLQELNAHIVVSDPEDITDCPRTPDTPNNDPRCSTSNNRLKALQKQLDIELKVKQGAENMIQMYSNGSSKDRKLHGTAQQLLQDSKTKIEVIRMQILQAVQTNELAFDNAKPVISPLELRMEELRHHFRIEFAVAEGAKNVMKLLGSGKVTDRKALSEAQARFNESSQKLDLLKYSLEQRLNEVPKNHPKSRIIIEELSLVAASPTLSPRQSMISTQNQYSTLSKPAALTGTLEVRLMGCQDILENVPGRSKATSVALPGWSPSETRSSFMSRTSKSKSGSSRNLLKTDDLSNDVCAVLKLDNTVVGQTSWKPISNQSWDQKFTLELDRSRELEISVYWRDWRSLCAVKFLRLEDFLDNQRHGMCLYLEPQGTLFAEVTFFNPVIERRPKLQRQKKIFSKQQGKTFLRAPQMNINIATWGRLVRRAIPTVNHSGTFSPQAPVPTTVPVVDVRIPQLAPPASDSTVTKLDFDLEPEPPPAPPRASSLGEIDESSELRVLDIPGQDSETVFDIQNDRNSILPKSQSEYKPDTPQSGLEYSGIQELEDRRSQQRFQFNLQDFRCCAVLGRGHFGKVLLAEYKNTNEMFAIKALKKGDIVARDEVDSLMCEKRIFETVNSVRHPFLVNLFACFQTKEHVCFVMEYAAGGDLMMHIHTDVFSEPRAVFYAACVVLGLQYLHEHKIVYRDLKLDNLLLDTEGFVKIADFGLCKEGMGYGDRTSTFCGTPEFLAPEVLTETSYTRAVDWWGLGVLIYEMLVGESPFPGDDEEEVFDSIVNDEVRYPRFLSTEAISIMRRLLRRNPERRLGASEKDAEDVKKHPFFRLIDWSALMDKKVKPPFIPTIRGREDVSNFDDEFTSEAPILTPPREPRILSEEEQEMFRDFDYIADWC
T6 sequence (Q04759 whole entry): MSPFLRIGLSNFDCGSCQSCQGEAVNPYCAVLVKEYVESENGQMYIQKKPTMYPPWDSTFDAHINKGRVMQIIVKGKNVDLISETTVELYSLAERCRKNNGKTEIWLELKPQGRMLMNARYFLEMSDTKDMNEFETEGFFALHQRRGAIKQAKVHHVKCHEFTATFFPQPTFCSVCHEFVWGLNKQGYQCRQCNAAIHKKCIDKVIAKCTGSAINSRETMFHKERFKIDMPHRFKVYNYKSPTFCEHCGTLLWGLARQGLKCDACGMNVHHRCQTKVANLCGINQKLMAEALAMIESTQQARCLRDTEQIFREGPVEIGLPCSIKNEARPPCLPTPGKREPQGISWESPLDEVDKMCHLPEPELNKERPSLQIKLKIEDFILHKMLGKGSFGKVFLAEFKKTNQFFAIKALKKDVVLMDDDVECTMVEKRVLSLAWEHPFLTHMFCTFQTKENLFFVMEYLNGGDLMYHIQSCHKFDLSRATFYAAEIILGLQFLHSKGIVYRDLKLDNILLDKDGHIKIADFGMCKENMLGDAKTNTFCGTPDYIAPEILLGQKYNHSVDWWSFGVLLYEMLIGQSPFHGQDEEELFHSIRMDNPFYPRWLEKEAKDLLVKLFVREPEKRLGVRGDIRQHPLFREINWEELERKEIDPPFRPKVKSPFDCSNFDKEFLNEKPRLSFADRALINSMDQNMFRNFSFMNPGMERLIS
T4 sequence (P49674 whole entry): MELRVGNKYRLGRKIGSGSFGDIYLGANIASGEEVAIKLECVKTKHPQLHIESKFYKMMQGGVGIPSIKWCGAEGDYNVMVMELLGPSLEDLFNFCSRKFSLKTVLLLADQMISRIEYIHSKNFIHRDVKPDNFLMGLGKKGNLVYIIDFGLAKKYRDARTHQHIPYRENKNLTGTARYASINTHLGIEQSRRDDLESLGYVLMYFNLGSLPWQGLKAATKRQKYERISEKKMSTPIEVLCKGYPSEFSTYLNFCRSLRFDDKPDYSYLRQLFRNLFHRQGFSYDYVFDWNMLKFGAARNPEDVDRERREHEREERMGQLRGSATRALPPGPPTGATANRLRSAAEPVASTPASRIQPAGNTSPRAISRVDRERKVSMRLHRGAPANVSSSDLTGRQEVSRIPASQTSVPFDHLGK
T2 sequence (P23458 whole entry): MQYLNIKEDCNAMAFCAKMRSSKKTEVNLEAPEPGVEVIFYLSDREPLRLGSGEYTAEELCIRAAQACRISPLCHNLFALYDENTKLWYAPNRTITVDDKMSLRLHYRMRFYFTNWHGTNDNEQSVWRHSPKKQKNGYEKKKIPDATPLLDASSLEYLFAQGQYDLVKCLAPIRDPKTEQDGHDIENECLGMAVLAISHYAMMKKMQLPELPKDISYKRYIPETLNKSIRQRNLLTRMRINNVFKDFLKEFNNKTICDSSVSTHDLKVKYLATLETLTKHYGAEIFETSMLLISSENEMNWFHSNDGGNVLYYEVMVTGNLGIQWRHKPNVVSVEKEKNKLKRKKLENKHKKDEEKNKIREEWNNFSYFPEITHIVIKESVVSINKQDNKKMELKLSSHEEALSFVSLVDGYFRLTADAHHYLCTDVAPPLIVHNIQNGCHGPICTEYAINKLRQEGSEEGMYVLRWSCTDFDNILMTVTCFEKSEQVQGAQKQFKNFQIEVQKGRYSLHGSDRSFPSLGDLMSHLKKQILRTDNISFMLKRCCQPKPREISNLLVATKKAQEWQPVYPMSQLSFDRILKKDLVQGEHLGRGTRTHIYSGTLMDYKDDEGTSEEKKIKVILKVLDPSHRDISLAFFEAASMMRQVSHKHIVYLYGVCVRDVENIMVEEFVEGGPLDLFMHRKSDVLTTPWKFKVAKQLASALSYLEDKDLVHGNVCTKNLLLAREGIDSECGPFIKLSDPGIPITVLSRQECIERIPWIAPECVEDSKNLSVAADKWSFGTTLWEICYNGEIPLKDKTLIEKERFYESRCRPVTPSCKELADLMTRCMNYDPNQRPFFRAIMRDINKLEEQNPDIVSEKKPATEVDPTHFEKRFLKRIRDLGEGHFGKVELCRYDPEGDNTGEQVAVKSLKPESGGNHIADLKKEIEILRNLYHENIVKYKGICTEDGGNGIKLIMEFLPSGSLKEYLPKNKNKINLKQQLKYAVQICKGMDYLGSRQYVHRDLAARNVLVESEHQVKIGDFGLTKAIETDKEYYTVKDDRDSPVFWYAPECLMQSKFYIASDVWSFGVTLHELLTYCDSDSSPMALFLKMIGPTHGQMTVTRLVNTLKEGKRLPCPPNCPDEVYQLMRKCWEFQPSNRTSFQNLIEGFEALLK
T5 sequence (P57059 whole entry): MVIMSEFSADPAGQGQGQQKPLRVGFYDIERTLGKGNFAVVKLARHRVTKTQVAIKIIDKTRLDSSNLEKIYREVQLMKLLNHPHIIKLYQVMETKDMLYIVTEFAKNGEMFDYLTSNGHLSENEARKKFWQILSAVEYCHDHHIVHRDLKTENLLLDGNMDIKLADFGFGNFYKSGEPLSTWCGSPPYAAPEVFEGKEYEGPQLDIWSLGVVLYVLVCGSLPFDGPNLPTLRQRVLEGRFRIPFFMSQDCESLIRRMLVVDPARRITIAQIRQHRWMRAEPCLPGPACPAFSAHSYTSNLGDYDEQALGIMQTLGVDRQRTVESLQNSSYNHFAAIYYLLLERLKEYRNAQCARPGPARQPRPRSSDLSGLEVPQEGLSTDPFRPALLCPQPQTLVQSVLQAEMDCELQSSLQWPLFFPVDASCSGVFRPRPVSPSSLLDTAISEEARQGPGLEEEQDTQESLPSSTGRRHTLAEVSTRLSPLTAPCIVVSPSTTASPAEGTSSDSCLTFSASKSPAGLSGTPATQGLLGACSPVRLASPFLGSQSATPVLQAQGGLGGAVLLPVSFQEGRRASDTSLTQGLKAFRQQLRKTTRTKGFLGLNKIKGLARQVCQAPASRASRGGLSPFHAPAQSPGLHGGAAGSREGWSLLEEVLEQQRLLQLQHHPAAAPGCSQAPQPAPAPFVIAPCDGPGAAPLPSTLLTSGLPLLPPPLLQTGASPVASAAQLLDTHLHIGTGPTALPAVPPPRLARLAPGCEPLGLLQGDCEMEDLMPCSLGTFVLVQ
T9 sequence (Q9H1R3 whole entry): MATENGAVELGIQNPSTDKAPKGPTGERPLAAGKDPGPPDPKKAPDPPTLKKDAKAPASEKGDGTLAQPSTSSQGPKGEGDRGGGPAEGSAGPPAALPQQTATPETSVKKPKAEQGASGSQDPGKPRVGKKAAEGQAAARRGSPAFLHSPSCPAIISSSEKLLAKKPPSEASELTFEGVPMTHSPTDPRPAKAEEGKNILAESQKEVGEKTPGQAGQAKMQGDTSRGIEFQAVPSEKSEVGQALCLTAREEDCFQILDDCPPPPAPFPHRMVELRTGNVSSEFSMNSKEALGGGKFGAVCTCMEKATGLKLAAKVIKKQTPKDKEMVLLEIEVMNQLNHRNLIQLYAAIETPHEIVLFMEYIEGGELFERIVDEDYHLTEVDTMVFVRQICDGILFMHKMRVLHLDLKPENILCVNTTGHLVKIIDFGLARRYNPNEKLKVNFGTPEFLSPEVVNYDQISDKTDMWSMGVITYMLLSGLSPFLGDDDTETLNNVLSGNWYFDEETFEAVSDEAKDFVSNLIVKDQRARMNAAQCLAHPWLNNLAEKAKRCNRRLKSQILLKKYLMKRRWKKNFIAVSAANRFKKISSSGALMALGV

For `c1ccc(CNc2cc(-c3c[nH]c4ncccc34)ccn2)cc1` [meriolin 36], the residual kinase activity in assay [1] (0.3 µM) is 8 % of control; in assay [1] (3 µM), 0 % of control; in [2] (0.3 µM), 58 % of control; in assay [2] (3 µM), 25 % of control; in assay [3] (0.3 µM), 14 % of control; in assay [3] (3 µM), 2 % of control. The residual kinase activity in assay [4] (0.3 µM) is reported as 86 % of control; in [4] (3 µM), 23 % of control; in assay [5] (0.3 µM) it was 87 % of control; in assay [5] (3 µM), 48 % of control; in [6] (0.3 µM) it was 2 % of control; in assay [6] (3 µM), 1 % of control. In addition, the residual kinase activity is recorded as 77 % of control in assay [7] (0.3 µM); 16 % of control in [7] (3 µM); 30 % of control in [8] (0.3 µM); 10 % of control in assay [8] (3 µM); 61 % of control in assay [9] (0.3 µM); 26 % of control in [9] (3 µM). Also, the residual kinase activity is reported as 30 % of control in assay [10] (0.3 µM), 12 % of control in [10] (3 µM), 59 % of control in [11] (0.3 µM) and 15 % of control in assay [11] (3 µM).

Turning to `COc1ccnc2[nH]cc(-c3cc(N)nc(N)c3)c12` [meriolin 16], the residual kinase activity in assay [1] (0.03 µM) is 90 % of control; in assay [1] (0.3 µM) it was 42 % of control; in assay [2] (0.03 µM), 78 % of control; in assay [2] (0.3 µM) it was 86 % of control; in assay [3] (0.03 µM) it was 48 % of control; in [3] (0.3 µM), 7 % of control. Further, the residual kinase activity in assay [4] (0.03 µM) is recorded as 112 % of control; in [4] (0.3 µM), 41 % of control; in assay [5] (0.03 µM) it was 102 % of control; in [5] (0.3 µM), 98 % of control; in assay [6] (0.03 µM), 40 % of control; in assay [6] (0.3 µM), 7 % of control. The residual kinase activity is 105 % of control in [7] (0.03 µM); 88 % of control in [7] (0.3 µM); 92 % of control in assay [8] (0.03 µM); 76 % of control in assay [8] (0.3 µM); 65 % of control in [9] (0.03 µM); 32 % of control in assay [9] (0.3 µM). The residual kinase activity in assay [10] (0.03 µM) is recorded as 35 % of control; in assay [10] (0.3 µM), 31 % of control; in assay [11] (0.03 µM) it was 83 % of control; in assay [11] (0.3 µM), 72 % of control.

Source of the values: PMC11167047 (Cell Death Discovery, 2024).
